The results in this text go back to paper PMC9611727, “Optimization of a Novel Mandelamide-Derived Pyrrolopyrimidine Series of PERK Inhibitors” (Pharmaceutics, 2022).

Assay in all cases: scanMAX kinase panel
Holding throughout (type): binding
What all share (details): read-out: % Control; for remaining binding at 1 µM: 1000 nM

For one assay, the target named is T1, PAK3 (Homo sapiens, UniProt O75914).
T1 construct: purchased DiscoverX scanMAX
The source says:
(§1) Supplemental Table S2. scanMAXSM Kinome Assay Results. Complete tabulated data of all 468 kinases from the panel, including
(§2) 403 wild-type and 65 mutant isoforms. […] Cmpd 11 and Cmpd 24

In the next assay the target is T2, RIPK2 (Homo sapiens, UniProt O43353).
T2 construct: purchased DiscoverX (scanMAX panel)
Description: as §1, §2

The next assay concerns the target T3, EPHB6 (Homo sapiens, UniProt O15197).
T3 construct: purchased DiscoverX scanMAX
T3 sequence (O15197 32-1021): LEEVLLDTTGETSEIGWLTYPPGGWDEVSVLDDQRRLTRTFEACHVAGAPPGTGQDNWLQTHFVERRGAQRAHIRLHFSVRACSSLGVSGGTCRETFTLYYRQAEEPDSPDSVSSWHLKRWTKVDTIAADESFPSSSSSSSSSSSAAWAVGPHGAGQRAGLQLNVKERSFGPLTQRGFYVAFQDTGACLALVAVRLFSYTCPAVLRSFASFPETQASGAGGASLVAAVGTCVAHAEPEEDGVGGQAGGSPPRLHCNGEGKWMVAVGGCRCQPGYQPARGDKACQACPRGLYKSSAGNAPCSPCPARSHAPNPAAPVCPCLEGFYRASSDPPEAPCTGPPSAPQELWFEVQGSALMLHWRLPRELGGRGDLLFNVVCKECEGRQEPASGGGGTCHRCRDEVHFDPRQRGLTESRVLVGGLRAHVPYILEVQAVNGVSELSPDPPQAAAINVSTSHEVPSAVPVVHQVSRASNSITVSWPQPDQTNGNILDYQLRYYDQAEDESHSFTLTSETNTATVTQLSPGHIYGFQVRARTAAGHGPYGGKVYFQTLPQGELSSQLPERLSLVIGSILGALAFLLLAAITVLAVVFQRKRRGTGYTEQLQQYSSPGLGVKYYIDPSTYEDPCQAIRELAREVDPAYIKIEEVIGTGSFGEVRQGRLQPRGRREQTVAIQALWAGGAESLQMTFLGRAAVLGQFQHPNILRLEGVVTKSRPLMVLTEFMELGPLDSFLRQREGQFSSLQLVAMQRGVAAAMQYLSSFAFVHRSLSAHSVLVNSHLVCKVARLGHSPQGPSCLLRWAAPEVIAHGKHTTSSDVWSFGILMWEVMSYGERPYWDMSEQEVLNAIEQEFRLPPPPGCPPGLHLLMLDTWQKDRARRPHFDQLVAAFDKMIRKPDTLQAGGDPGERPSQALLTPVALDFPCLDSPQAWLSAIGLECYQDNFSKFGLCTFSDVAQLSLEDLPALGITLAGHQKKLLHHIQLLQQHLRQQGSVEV
Description: as §1, §2

A further assay deals with T4, YSK4 (Homo sapiens, UniProt Q56UN5).
T4 construct: purchased DiscoverX (scanMAX panel)
T4 sequence (Q56UN5 1-1328): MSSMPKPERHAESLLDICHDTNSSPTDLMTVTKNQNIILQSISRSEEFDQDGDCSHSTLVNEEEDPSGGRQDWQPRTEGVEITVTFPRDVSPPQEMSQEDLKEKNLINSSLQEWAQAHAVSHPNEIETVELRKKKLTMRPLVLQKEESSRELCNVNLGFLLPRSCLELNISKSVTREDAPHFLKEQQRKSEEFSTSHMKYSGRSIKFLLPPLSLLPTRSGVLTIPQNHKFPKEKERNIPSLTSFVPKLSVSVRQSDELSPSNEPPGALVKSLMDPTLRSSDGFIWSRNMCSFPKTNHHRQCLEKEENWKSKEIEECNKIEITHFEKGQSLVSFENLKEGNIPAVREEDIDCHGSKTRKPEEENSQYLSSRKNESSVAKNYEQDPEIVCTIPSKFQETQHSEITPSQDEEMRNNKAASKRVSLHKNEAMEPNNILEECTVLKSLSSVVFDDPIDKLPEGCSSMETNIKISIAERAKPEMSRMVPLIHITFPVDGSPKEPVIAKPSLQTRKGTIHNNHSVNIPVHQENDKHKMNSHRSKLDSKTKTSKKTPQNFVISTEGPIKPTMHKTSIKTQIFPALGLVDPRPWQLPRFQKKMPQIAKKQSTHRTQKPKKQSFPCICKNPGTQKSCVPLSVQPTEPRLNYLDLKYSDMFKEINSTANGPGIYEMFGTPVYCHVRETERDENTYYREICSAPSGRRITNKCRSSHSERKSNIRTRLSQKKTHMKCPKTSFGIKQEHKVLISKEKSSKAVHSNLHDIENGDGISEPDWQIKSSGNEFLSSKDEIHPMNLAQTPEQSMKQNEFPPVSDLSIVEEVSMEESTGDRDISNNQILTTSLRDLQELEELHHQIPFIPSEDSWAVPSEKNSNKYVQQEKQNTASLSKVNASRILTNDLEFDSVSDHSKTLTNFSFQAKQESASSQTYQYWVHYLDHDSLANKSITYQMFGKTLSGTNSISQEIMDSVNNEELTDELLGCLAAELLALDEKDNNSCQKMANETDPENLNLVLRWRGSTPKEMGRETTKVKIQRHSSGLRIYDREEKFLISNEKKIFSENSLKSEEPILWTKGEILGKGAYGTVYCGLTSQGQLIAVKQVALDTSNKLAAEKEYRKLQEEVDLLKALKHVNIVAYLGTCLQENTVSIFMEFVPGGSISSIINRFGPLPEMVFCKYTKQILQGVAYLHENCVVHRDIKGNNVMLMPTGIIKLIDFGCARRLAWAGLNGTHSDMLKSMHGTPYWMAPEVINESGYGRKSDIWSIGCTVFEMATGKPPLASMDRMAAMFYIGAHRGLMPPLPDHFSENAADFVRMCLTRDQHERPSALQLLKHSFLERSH
Description: as §1, §2

T1 sequence (O75914 whole entry): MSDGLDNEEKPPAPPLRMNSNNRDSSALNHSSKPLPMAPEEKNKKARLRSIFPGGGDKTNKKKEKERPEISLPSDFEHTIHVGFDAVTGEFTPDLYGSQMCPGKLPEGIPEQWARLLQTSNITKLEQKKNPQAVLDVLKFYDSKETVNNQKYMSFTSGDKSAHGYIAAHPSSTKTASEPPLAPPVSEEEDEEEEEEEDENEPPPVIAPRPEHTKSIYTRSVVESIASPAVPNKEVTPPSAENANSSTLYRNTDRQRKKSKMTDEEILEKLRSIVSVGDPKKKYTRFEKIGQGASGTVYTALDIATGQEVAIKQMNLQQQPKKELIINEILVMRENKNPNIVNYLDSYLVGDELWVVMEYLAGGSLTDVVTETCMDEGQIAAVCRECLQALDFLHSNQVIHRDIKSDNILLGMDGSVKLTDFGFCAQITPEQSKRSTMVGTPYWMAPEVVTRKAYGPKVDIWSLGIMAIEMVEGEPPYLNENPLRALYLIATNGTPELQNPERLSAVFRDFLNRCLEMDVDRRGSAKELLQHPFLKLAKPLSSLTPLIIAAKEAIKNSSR
T2 sequence (O43353 whole entry): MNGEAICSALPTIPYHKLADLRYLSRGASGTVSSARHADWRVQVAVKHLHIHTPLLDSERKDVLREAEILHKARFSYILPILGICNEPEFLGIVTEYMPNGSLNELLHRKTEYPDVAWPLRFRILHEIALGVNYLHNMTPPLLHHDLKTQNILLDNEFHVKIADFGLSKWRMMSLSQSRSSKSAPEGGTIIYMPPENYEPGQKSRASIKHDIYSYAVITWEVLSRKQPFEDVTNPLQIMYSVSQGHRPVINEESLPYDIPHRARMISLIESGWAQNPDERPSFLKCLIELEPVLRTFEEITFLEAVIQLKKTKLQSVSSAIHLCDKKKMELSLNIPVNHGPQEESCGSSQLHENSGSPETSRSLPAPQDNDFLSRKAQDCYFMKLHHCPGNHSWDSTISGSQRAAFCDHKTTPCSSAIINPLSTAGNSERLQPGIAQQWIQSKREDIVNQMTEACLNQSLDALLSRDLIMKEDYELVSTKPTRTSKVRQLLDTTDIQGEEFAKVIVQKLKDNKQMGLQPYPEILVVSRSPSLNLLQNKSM

Turning to `Cc1cc(NC(=O)[C@H](O)c2cccc(F)c2)ccc1-c1cn(C)c2ncnc(N)c12` [Compound 11, (R)-N-(4-(4-amino-7-methyl-7H-pyrrolo[2,3-d]pyrimidin-5-yl)-3-methylphenyl)-2-(3-fluorophenyl)-2-hydroxy acetamide], the remaining binding at 1 µM on PAK3 was found to be 36%; at RIPK2, 15%; at EPHB6, 2.6%; at YSK4 it was 18%.

For the compound `Cc1nc(N)c2c(-c3ccc(NC(=O)[C@H](O)c4cccc(F)c4)cc3C)cn(C)c2n1` [Compound 24], the remaining binding at 1 µM at PAK3, at RIPK2, at EPHB6 and on YSK4 was 100% each time.

As for `Cc1nc(N)c2c(-c3ccc(NC(=O)[C@H](O)c4cccc(C(F)(F)F)c4)cc3C)cn(C)c2n1` [Compound 26], the remaining binding at 0.1 µM is 97% at PAK3 (100 nM), 91% at RIPK2 (100 nM), 94% at EPHB6 (100 nM) and 95% at YSK4 (100 nM). For the same compound, the remaining binding at 1 µM on PAK3 came to 31%; on RIPK2 it was 43%; on EPHB6, 48%; at YSK4 it was 55%.
